Several values for one entry are separate records, joined by “and”; a condition that tells them apart may be missing. Equal values may be shown once. Entries after “also recorded” stand apart in the source; their conditions may differ. Read-outs that look alike come from different tables or passages of the source.
Key:
SARS2 = type: cell-based, SARS-CoV-2; conditions: for Infection Data, Average, Mean percentage infection relative to DMSO control: Average of Exp 1 (SMW491) and Exp 2 (SMW492); for Infection Data, Percentage Infection Relative to Appropriate DMSO Control: single well, avg background subtraction; for Percentage Inhibition Average 1 μM / Screening data (Relative infection to DMSO controls) Average 1 μM: SARS2, 1 μM; for Screening data (Relative infection to DMSO controls) Average 1 μM / Screening data (Relative infection to DMSO controls) Average 5 μM / Screening data (Relative infection to DMSO controls) Average 10 μM / Screening data (Relative infection to DMSO controls) Average 25 μM / Screening data (Relative infection to DMSO controls) Average 50 μM / Average (relative infection to DMSO over the 5 tested concentrations): 100=DMSO control; for Percentage Inhibition Average 5 μM / Screening data (Relative infection to DMSO controls) Average 5 μM: SARS2, 5 μM; for Percentage Inhibition Average 10 μM / Screening data (Relative infection to DMSO controls) Average 10 μM: SARS2, 10 μM; for Percentage Inhibition Average 25 μM / Screening data (Relative infection to DMSO controls) Average 25 μM: SARS2, 25 μM; for Percentage Inhibition Average 50 μM / Screening data (Relative infection to DMSO controls) Average 50 μM: SARS2, 50 μM; for Average (relative infection to DMSO over the 5 tested concentrations): SARS2, average over 1 to 50 uM; for Percentage Infection Relative to Appropriate DMSO Control with Avg Background Subtraction: Greiner Celigo plates; for Infection Data, Average, Mean: average of Exp 1-3 (SMW475, SMW477, SMW478)
cells (nuclei count) = conditions: for Relative cell count to DMSO controls, Average 1 μM / Relative cell count to DMSO controls, Average 5 μM / Relative cell count to DMSO controls, Average 10 μM / Relative cell count to DMSO controls, Average 25 μM / Relative cell count to DMSO controls, Average 50 μM: toxicity data, 100=DMSO control; for Toxicity Data, Average, Mean percentage relative to DMSO control: Average of Exp 1 (SMW491) and Exp 2 (SMW492); for Toxicity Data, Percentage Relative to Appropriate DMSO Control: single well; for Relative cell count to DMSO controls, Average (for correlation analysis): average value over the 5 tested concentrations (1 to 50 uM); for Toxicity Data, Average, Mean: average of Exp 1-3 (SMW475, SMW477, SMW478)

For `COc1ccc(CNCCc2ccccc2F)c(OCC(O)CN2CCN(C)CC2)c1` (stereo not shown) [SILCS45], the “SARS2 antiviral activity” value (SARS2) was “improved activity over SILCS41; also recorded: improved properties over SILCS46”, the “Infection Data, Average, Mean percentage infection relative to DMSO control” value (SARS2; n=4, 1 uM) was 54.68% and the “Infection Data, Average, Mean percentage infection relative to DMSO control” value (SARS2; n=4, 5 uM) was −1.00%. The “Infection Data, Average, Mean percentage infection relative to DMSO control” value (SARS2; n=4, 10 uM) was 3.88%, the “Infection Data, Average, Mean percentage infection relative to DMSO control” value (SARS2; n=4, 25 uM) was −1.28% and the “Infection Data, Average, Mean percentage infection relative to DMSO control” value (SARS2; n=4, 50 uM) was 3.57%. The “Infection Data, Percentage Infection Relative to Appropriate DMSO Control” value (SARS2; Exp 1 (SMW491), 1 uM) was 102.92% and 112.49%, the “Infection Data, Percentage Infection Relative to Appropriate DMSO Control” value (SARS2; Exp 1 (SMW491), 5 uM) was −1.31% and −0.48% and the “Infection Data, Percentage Infection Relative to Appropriate DMSO Control” value (SARS2; Exp 1 (SMW491), 10 uM) was 0.12% and −3.09%. For the same molecule, the “Infection Data, Percentage Infection Relative to Appropriate DMSO Control” value (SARS2; Exp 1 (SMW491), 25 uM) was −0.41% and −2.68%, the “Infection Data, Percentage Infection Relative to Appropriate DMSO Control” value (SARS2; Exp 1 (SMW491), 50 uM) was 1.17% and −2.53% and the “Infection Data, Percentage Infection Relative to Appropriate DMSO Control” value (SARS2; Exp 2 (SMW492), 1 uM) was 3.72% and −0.43%. For the same molecule, the “Infection Data, Percentage Infection Relative to Appropriate DMSO Control” value (SARS2; Exp 2 (SMW492), 5 uM) was −2.43% and 0.22%, the “Infection Data, Percentage Infection Relative to Appropriate DMSO Control” value (SARS2; Exp 2 (SMW492), 10 uM) was 7.69% and 10.80% and the “Infection Data, Percentage Infection Relative to Appropriate DMSO Control” value (SARS2; Exp 2 (SMW492), 25 uM) was 0.00% and −2.03%. The “Infection Data, Percentage Infection Relative to Appropriate DMSO Control” value (SARS2; Exp 2 (SMW492), 50 uM) was 7.94% and 7.68%, the “Percentage Inhibition Average 1 μM” value (SARS2) was 45.32% and the “Screening data (Relative infection to DMSO controls) Average 1 μM” value (SARS2) was 54.68. For the same molecule, the “Percentage Inhibition Average 5 μM” value (SARS2) was 101.00%, the “Screening data (Relative infection to DMSO controls) Average 5 μM” value (SARS2) was −1.00 and the “Percentage Inhibition Average 10 μM” value (SARS2) was 96.12%. The “Screening data (Relative infection to DMSO controls) Average 10 μM” value (SARS2) was 3.88, the “Percentage Inhibition Average 25 μM” value (SARS2) was 101.28% and the “Screening data (Relative infection to DMSO controls) Average 25 μM” value (SARS2) was −1.28. For the same molecule, the “Percentage Inhibition Average 50 μM” value (SARS2) was 96.43%, the “Screening data (Relative infection to DMSO controls) Average 50 μM” value (SARS2) was 3.57 and the “Average (relative infection to DMSO over the 5 tested concentrations)” value (SARS2) was 11.97. The “SARS2 antiviral activity” value (SARS2; listed as D45) was “more potent than D46”, the “Relative cell count to DMSO controls, Average 1 μM” value (cells (nuclei count)) was 116.96 and the “Relative cell count to DMSO controls, Average 5 μM” value (cells (nuclei count)) was 123.47. The “Relative cell count to DMSO controls, Average 10 μM” value (cells (nuclei count)) was 131.34, the “Relative cell count to DMSO controls, Average 25 μM” value (cells (nuclei count)) was 119.79 and the “Relative cell count to DMSO controls, Average 50 μM” value (cells (nuclei count)) was 125.46. The “Toxicity Data, Average, Mean percentage relative to DMSO control” value (cells (nuclei count); n=4, 1 uM) was 116.96%, the “Toxicity Data, Average, Mean percentage relative to DMSO control” value (cells (nuclei count); n=4, 5 uM) was 123.47% and the “Toxicity Data, Average, Mean percentage relative to DMSO control” value (cells (nuclei count); n=4, 10 uM) was 131.34%. For the same molecule, the “Toxicity Data, Average, Mean percentage relative to DMSO control” value (cells (nuclei count); n=4, 25 uM) was 119.79%, the “Toxicity Data, Average, Mean percentage relative to DMSO control” value (cells (nuclei count); n=4, 50 uM) was 125.46% and the “Toxicity Data, Percentage Relative to Appropriate DMSO Control” value (cells (nuclei count); Exp 1 (SMW491), 1 uM) was 94% and 101%. For the same molecule, the “Toxicity Data, Percentage Relative to Appropriate DMSO Control” value (cells (nuclei count); Exp 1 (SMW491), 5 uM) was 121% and 114%, the “Toxicity Data, Percentage Relative to Appropriate DMSO Control” value (cells (nuclei count); Exp 1 (SMW491), 10 uM) was 111% and 127% and the “Toxicity Data, Percentage Relative to Appropriate DMSO Control” value (cells (nuclei count); Exp 1 (SMW491), 25 uM) was 95% and 123%. The “Toxicity Data, Percentage Relative to Appropriate DMSO Control” value (cells (nuclei count); Exp 1 (SMW491), 50 uM) was 129% and 121%, the “Toxicity Data, Percentage Relative to Appropriate DMSO Control” value (cells (nuclei count); Exp 2 (SMW492), 1 uM) was 139% and 133% and the “Toxicity Data, Percentage Relative to Appropriate DMSO Control” value (cells (nuclei count); Exp 2 (SMW492), 5 uM) was 133% and 126%. For the same molecule, the “Toxicity Data, Percentage Relative to Appropriate DMSO Control” value (cells (nuclei count); Exp 2 (SMW492), 10 uM) was 137% and 151%, the “Toxicity Data, Percentage Relative to Appropriate DMSO Control” value (cells (nuclei count); Exp 2 (SMW492), 25 uM) was 135% and 127% and the “Toxicity Data, Percentage Relative to Appropriate DMSO Control” value (cells (nuclei count); Exp 2 (SMW492), 50 uM) was 126%. The “Relative cell count to DMSO controls, Average (for correlation analysis)” value (cells (nuclei count)) was 123.40.

For `CCN(CC)CCN(Cc1cccs1)C(=O)c1cccs1` [SILCS34], the “Percentage Infection Relative to Appropriate DMSO Control with Avg Background Subtraction” value (SARS2; Exp 1 (SMW475), 1 uM) was 84.46% and 79.06% and 78.77%, the “Percentage Infection Relative to Appropriate DMSO Control with Avg Background Subtraction” value (SARS2; Exp 1 (SMW475), 5 uM) was 83.89% and 91.52% and 85.89% and the “Percentage Infection Relative to Appropriate DMSO Control with Avg Background Subtraction” value (SARS2; Exp 1 (SMW475), 10 uM) was 120.42% and 77.92% and 112.44%. For the same molecule, the “Percentage Infection Relative to Appropriate DMSO Control with Avg Background Subtraction” value (SARS2; Exp 1 (SMW475), 25 uM) was 73.54% and 67.42% and 88.43%, the “Percentage Infection Relative to Appropriate DMSO Control with Avg Background Subtraction” value (SARS2; Exp 1 (SMW475), 50 uM) was 98.27% and 86.62% and 67.73% and the “Percentage Infection Relative to Appropriate DMSO Control with Avg Background Subtraction” value (SARS2; Exp 2 (SMW477), 1 uM) was 117.81% and 129.29% and 121.32%. For the same molecule, the “Percentage Infection Relative to Appropriate DMSO Control with Avg Background Subtraction” value (SARS2; Exp 2 (SMW477), 5 uM) was 137.43% and 146.89% and 126.80%, the “Percentage Infection Relative to Appropriate DMSO Control with Avg Background Subtraction” value (SARS2; Exp 2 (SMW477), 10 uM) was 142.94% and 144.38% and 155.80% and the “Percentage Infection Relative to Appropriate DMSO Control with Avg Background Subtraction” value (SARS2; Exp 2 (SMW477), 25 uM) was 109.38% and 111.61% and 103.44%. For the same molecule, the “Percentage Infection Relative to Appropriate DMSO Control with Avg Background Subtraction” value (SARS2; Exp 2 (SMW477), 50 uM) was 62.30% and 66.46% and 58.63%, the “Percentage Infection Relative to Appropriate DMSO Control with Avg Background Subtraction” value (SARS2; Exp 3 (SMW478), 1 uM) was 120.13% and 101.31% and 117.84% and the “Percentage Infection Relative to Appropriate DMSO Control with Avg Background Subtraction” value (SARS2; Exp 3 (SMW478), 5 uM) was 108.72% and 96.17% and 137.98%. The “Percentage Infection Relative to Appropriate DMSO Control with Avg Background Subtraction” value (SARS2; Exp 3 (SMW478), 10 uM) was 127.49% and 93.45% and 116.79%, the “Percentage Infection Relative to Appropriate DMSO Control with Avg Background Subtraction” value (SARS2; Exp 3 (SMW478), 25 uM) was 164.75% and 165.91% and 139.33% and the “Percentage Infection Relative to Appropriate DMSO Control with Avg Background Subtraction” value (SARS2; Exp 3 (SMW478), 50 uM) was 145.01% and 171.02% and 138.34%. The “Percentage Inhibition Average 1 μM” value (SARS2) was −5.55%, the “Screening data (Relative infection to DMSO controls) Average 1 μM” value (SARS2) was 105.55 and the “Percentage Inhibition Average 5 μM” value (SARS2) was −12.81%. The “Screening data (Relative infection to DMSO controls) Average 5 μM” value (SARS2) was 112.81, the “Percentage Inhibition Average 10 μM” value (SARS2) was −21.29% and the “Screening data (Relative infection to DMSO controls) Average 10 μM” value (SARS2) was 121.29. For the same molecule, the “Percentage Inhibition Average 25 μM” value (SARS2) was −13.76%, the “Screening data (Relative infection to DMSO controls) Average 25 μM” value (SARS2) was 113.76 and the “Percentage Inhibition Average 50 μM” value (SARS2) was 0.62%. The “Screening data (Relative infection to DMSO controls) Average 50 μM” value (SARS2) was 99.38, the “Average (relative infection to DMSO over the 5 tested concentrations)” value (SARS2) was 110.56 and the “Infection Data, Average, Mean” value (SARS2; n 9, 1 uM) was 105.55%. The “Infection Data, Average, Mean” value (SARS2; n 9, 5 uM) was 112.81%, the “Infection Data, Average, Mean” value (SARS2; n 9, 10 uM) was 121.29% and the “Infection Data, Average, Mean” value (SARS2; n 9, 25 uM) was 113.76%. The “Infection Data, Average, Mean” value (SARS2; n 9, 50 uM) was 99.38%, the “Relative cell count to DMSO controls, Average 1 μM” value (cells (nuclei count)) was 102.47 and the “Relative cell count to DMSO controls, Average 5 μM” value (cells (nuclei count)) was 99.62. For the same molecule, the “Relative cell count to DMSO controls, Average 10 μM” value (cells (nuclei count)) was 91, the “Relative cell count to DMSO controls, Average 25 μM” value (cells (nuclei count)) was 89.42 and the “Relative cell count to DMSO controls, Average 50 μM” value (cells (nuclei count)) was 67.85. The “Toxicity Data, Average, Mean” value (cells (nuclei count); n 9, 1 uM) was 102.47%, the “Toxicity Data, Average, Mean” value (cells (nuclei count); n 9, 5 uM) was 99.62% and the “Toxicity Data, Average, Mean” value (cells (nuclei count); n 9, 10 uM) was 91.00%. The “Toxicity Data, Average, Mean” value (cells (nuclei count); n 9, 25 uM) was 89.42%, the “Toxicity Data, Average, Mean” value (cells (nuclei count); n 9, 50 uM) was 67.85% and the “Relative cell count to DMSO controls, Average (for correlation analysis)” value (cells (nuclei count)) was 90.07.
